Measured values reported in patent US9918479B2, “Control of phytopathogenic microorganisms with Pseudomonas sp. and substances and compositions derived therefrom” (priority 2012, dated 2018).

Test system: CL145A (ATCC 55799)
Assay: Antibiotic resistance profile, antibiotic discs on Mueller-Hinton agar
Settings: 72 hours incubation
Experimental: One glycerol stock vial of CL145A was equally distributed onto Mueller-Hinton Agar plates (100 μl per plate) and spread on the plate using a sterile cell spreader. Antibiotic discs were then placed onto the plates along with a blank sterile disc. Plates were incubated at 25° C. in the dark for 72 hours.

Compound | CL145A resistant or sensitive to the antibiotic (growth inhibited by the antibiotic disc)
CC1(C)S[C@@H]2[C@H](NC(=O)[C@H](N)c3ccccc3)C(=O)N2[C@H]1C(=O)O [Ampicillin] | resistant
CO/N=C(\C(=O)N[C@@H]1C(=O)N2C(C(=O)O)=C(COC(N)=O)CS[C@H]12)c1ccco1 [Cefuroxime] | resistant
O=C(N[C@H](CO)[C@H](O)c1ccc([N+](=O)[O-])cc1)C(Cl)Cl [Chloramphenicol] | resistant
CC[C@H]1OC(=O)[C@H](C)[C@@H](O[C@H]2C[C@@](C)(OC)[C@@H](O)[C@H](C)O2)[C@H](C)[C@@H](O[C@@H]2O[C@H](C)C[C@H](N(C)C)[C@H]2O)[C@](C)(O)C[C@@H](C)C(=O)[C@H](C)[C@@H](O)[C@]1(C)O [Erythromycin] | resistant
CCN1CCN(C(=O)N[C@@H](C(=O)N[C@@H]2C(=O)N3[C@@H]2SC(C)(C)[C@@H]3C(=O)O)c2ccccc2)C(=O)C1=O [Piperacillin] | sensitive
[H]/N=C(/N)N[C@H]1[C@H](O)[C@@H](O)[C@H](O[C@@H]2O[C@@H](C)[C@](O)(C=O)[C@H]2O[C@@H]2O[C@@H](CO)[C@H](O)[C@@H](O)[C@@H]2NC)[C@@H](N/C(N)=N\[H])[C@@H]1O [Streptomycin] | resistant
Gentamicin | sensitive
Penicillin | resistant
